Consider 50 compounds from ChEMBL document CHEMBL1201862, “PubChem BioAssay data set” (2004).

Activity calls are given as the source filed them.

A short description of test [1]: inhibitors of intracellular T. cruzi replication, confirmation, NIH3T3 host cells, beta-gal luminescence (AID 2044).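 Note: intracellular parasites grown in NIH/3T3 mouse fibroblasts as host cells; luminescent beta-galactosidase reporter signal from transgenic T. cruzi replicating inside host cells; inhibitors lower the luminescence signal.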 In kind it is functional, cell-based.
The nature of test [2]: cytotoxicity toward NIH3T3 fibroblasts, dose response, counter-screen, cell-based, ATP luminescence, mouse fibroblasts (AID 2010).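 Note: cells exposed to compound for about 90 hours before reading.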 It counts as functional. (A counterscreen serves to expose hits that act by an unwanted route or on another target.)
The target in the next test is Cytochrome P450 2C9 (Homo sapiens, UniProt P11712).
For the next test, the target named is T1, Cytochrome P450 1A2 (Homo sapiens, UniProt P05177).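 Note: PubChem cytochrome P450 panel assay, CYP1A2 panel member.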
T1 sequence (P05177 whole entry): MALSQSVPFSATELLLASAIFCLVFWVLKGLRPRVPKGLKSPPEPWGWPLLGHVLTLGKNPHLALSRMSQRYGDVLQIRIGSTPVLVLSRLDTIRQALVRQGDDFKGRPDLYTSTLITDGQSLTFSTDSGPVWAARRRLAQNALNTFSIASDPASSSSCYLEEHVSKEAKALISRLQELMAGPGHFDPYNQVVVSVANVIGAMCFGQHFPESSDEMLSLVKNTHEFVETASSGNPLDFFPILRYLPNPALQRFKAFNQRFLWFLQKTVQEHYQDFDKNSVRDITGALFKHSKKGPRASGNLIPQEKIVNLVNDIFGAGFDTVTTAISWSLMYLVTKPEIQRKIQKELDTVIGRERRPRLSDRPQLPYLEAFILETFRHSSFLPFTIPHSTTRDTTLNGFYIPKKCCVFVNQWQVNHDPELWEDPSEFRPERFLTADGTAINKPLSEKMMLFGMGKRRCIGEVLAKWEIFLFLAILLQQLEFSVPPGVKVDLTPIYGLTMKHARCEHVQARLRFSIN

A further test addresses Cytochrome P450 3A4 (Homo sapiens, UniProt P08684).
Test [3] relates to Streptococcus sp. 'group A'. The test is described as follows: growth inhibition of control SK(-) GAS strain, dose response, counter-screen for streptokinase expression inhibitor project, luminescence, kanamycin, BacTiterGlo, confirmation (AID 1900). In kind it is functional, organism-based.
The test system of another test is Streptococcus. Briefly: Group A Streptococcus viability loss, dose response, counter-screen for streptokinase expression inhibitor project, luminescence, BacTiterGlo (AID 1915).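 Note: potency for reduction of bacterial viability or growth.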 It counts as functional, organism-based.
In test [4] the target is T2, Corticotropin-releasing factor receptor 2/Corticotropin-releasing factor-binding protein (Homo sapiens, UniProt P24387+Q13324).
T2 sequence (Q13324 whole entry): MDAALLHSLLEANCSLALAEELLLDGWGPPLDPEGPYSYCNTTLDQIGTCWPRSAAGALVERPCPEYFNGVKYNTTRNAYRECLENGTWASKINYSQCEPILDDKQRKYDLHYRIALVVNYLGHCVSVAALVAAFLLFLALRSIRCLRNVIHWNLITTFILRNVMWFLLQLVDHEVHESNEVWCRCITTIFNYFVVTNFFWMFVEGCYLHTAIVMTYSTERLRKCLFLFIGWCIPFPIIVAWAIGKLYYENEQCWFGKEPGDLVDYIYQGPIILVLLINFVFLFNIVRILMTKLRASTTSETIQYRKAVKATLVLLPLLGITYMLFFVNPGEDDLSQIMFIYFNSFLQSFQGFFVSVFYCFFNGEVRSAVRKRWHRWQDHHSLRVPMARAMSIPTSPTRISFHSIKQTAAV
T2 sequence (P24387 whole entry): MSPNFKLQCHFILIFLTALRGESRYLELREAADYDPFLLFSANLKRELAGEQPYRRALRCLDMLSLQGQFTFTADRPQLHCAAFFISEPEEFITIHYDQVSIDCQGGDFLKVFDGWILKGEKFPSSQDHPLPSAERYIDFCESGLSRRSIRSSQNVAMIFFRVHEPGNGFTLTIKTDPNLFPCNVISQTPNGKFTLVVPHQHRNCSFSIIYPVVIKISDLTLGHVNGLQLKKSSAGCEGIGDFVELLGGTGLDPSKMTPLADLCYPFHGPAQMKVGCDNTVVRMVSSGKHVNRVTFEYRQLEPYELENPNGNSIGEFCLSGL
The test is described as follows: activators of CRF receptor 2 with binding protein – uHTS hits, confirmation (AID 602473). It counts as functional. The following applies: read-out: EC50_Mean.

Test [5] in a line: inhibitors of firefly luciferase expression or activity, dose response, H4 neuroglioma cells, luminescence (AID 1990). In kind it is functional, cell-based.

Chain of Cytochrome P450 2C9 (P11712 whole entry): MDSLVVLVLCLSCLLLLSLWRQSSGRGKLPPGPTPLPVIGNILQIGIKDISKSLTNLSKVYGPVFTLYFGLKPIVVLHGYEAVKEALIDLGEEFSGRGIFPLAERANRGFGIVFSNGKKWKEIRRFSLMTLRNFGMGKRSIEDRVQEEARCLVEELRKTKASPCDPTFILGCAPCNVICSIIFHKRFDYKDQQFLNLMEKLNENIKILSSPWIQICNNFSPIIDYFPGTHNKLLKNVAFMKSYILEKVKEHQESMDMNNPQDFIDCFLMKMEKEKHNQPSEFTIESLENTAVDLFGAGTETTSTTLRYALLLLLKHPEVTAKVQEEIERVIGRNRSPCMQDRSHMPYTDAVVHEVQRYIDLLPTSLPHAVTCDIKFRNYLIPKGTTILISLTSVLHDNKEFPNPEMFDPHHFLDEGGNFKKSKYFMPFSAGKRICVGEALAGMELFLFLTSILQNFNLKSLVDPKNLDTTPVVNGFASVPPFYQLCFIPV
Chain of Cytochrome P450 3A4 (P08684 whole entry): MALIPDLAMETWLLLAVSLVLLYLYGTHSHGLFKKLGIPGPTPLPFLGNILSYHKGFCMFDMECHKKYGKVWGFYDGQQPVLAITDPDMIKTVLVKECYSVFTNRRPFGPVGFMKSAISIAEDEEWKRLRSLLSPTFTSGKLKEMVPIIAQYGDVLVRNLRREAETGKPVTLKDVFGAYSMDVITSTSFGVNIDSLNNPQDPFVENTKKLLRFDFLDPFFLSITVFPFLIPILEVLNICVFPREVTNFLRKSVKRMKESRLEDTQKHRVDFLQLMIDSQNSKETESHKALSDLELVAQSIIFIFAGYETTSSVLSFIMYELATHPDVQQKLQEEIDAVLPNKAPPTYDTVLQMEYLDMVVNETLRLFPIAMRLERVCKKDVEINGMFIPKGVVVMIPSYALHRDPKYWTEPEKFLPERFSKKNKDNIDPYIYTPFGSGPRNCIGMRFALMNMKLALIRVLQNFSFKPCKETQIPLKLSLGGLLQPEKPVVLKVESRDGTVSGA

As for `CN1CCN(/N=C/c2ccc(-c3ccc([N+](=O)[O-])cc3)o2)CC1`, the EC50 in test [1] is 1.11 µM (active); in test [2], > 60 µM (not active).
As a reminder, the AC50 is the concentration at which the activity in the assay is half-maximal. Consider `O=[N+]([O-])c1ccc([C@@H](Nc2ccccc2)c2ccc3cccnc3c2O)cc1`, for which the AC50 at Cytochrome P450 2C9 was 6.31 µM (inconclusive).
`CCc1nnc2sc(-c3ccc(NC(=O)c4ccco4)cc3)nn12`: the AC50 at Cytochrome P450 1A2 is 14.1 µM (inconclusive); at Cytochrome P450 3A4 it was 0.708 µM (inconclusive).
For `Cc1cccc(N(CC(=O)NC2CCCC2)C(=O)c2cc3cc4cccc(C)c4nc3s2)c1C`, the figures for the EC50 in [1] and in test [2] were 1.6 µM (active) and > 60 µM (not active), respectively.
Take `O=C(Nc1nnc(C2=COCCO2)o1)c1ccc(Br)cc1`: the results for the EC50 (in [3]; in the test with Streptococcus) were 1.9 µM (active) and 5.47 µM (active), respectively.
For `CCc1ccc(OCCNC(=O)c2ccccc2SCc2ccc(F)cc2)cc1`, the EC50 in test [1] was 2.67 µM (active); in [2], > 60 µM (not active).
In the case of `Cc1nc(SC2CC(=O)N(c3ccc([N+](=O)[O-])cc3)C2=O)nc2c1CCCC2` (configuration not stated), the values for the AC50 on Cytochrome P450 3A4 and on Cytochrome P450 2C9 were 20 µM (inconclusive) and 11.2 µM (inconclusive), respectively.
On to `COc1ccc(CN2CCSCC2)cc1C`, for which the EC50 in test [4] was 12.7 µM (active).
In the case of `COc1c(F)c(F)c(C(=O)O)c(Nc2ccc(C)cc2)c1F`, the AC50 at Cytochrome P450 1A2 was 22.4 µM (inconclusive).
Consider `COc1cc2c(C(=O)N3CCN(C)CC3)c(C)n(-c3ccccc3)c2cc1Br`, for which the AC50 is 25.1 µM (inconclusive) on Cytochrome P450 1A2 and 22.4 µM (inconclusive) at Cytochrome P450 2C9.
As to `O=C(CCC(=O)OCc1ccc(C(=O)Oc2ccccc2)cc1)Nc1cccc2ccccc12`, the AC50 at Cytochrome P450 1A2 was 8.91 µM (inconclusive).
For the compound `CCc1sc(-c2c(C#N)c(N)nc3c2CCCCCC3)cc1[N+](=O)[O-]`, at Cytochrome P450 2C9, the AC50 is 2.82 µM (inconclusive).
In the case of `CCOC(=O)CNS(=O)(=O)c1cc(-c2nn(C)c(=O)c3ccccc23)ccc1C`, the AC50 on Cytochrome P450 3A4 is 39.8 µM (inconclusive).
As for `Cn1c(=O)c(-c2cccs2)nc2cncnc21`, the AC50 on Cytochrome P450 2C9 was 39.8 µM (inconclusive).
On to `COc1ccccc1C(=O)NNC(=O)C(=O)Nc1ccc(C)c(Cl)c1`, for which the results for the EC50 (in test [3]; with Streptococcus) were 1.73 µM (active) and 3.87 µM (active), respectively.
Regarding `CCC1CCCCN1Cc1ccc(OC)c(C)c1` (configuration not stated), in test [4], the EC50 is 14 µM (active).
Take `COc1ccc2c(c1)C(=O)N(Cc1ccco1)C(=O)/C2=C\Nc1c(C)n(C)n(-c2ccccc2)c1=O`: the concentration at half-maximal activity (AC50) was 8.91 µM (inconclusive) on Cytochrome P450 3A4 and 7.94 µM (inconclusive) at Cytochrome P450 2C9.
Consider `CCNCc1cc(OCC)c(OCC(=O)NCCc2ccccc2)cc1Cl`, for which the AC50 on Cytochrome P450 2C9 is 20 µM (inconclusive).
For `COc1ccc(-c2cc3ncnc(Cl)c3s2)cc1`, the EC50 in test [3] is 9.73 µM (active); with Streptococcus, 26 µM (active).
On to `Cc1ccc(-c2cc(C(F)F)n3ncc(C(=O)N4CCN(c5ccccn5)CC4)c3n2)cc1`, for which the EC50 is 0.5 µM (active) in test [1] and > 60 µM (not active) in [2].
`Cc1cccc(NC(=O)c2cccc(Cn3cc(Br)c([N+](=O)[O-])n3)c2)c1C`: the EC50 in [1] is 0.834 µM (active); in test [2] it was 39 µM (active).
For `CCCn1c(SCC(=O)N2CC(=O)Nc3ccccc32)nc2ccccc21`, the EC50 in test [4] was > 53 µM (inactive).
As for `O=C(Cn1cnc2cc([N+](=O)[O-])ccc2c1=O)Nc1ccccc1-c1ccccc1`, the figures for the EC50 in [1] and in test [2] were 0.629 µM (active) and > 30 µM (not active), respectively.
Consider `C=CC[C@@H]1C=C[C@@H](O/N=C\C[C@@H]2C=C[C@H](OC(C)=O)[C@H](COC(C)=O)O2)[C@@H](CO)O1`, for which, on Cytochrome P450 3A4, the AC50 was 3.98 µM (inconclusive).
On to `CCCCCCCC(=O)O[C@H](CC(=O)O)C[N+](C)(C)C` [OCTANOYLCARNITINE], for which the AC50 on Cytochrome P450 1A2 is 31.6 µM (inconclusive).
For `COc1ccccc1CN1CCCC(C(=O)c2ccccc2SC)C1` (configuration not stated), the EC50 in test [1] was 1.6 µM (active); in [2], > 60 µM (not active).
On to `CC1CC(C)CN(C/C=C/c2ccccc2[N+](=O)[O-])C1` (configuration not stated), for which the AC50 at Cytochrome P450 1A2 is 14.1 µM (inconclusive); at Cytochrome P450 3A4, 25.1 µM (inconclusive); on Cytochrome P450 2C9 it was 1.58 µM (inconclusive).
`CCc1ccc(OCC(=O)OC2CCS(=O)(=O)C2)cc1` (configuration not stated): the AC50 at Cytochrome P450 1A2 is 12.6 µM (inconclusive).
`COc1ccc(-c2csc3c2[N+]2=CCC=C2C3[O-])cc1` (configuration not stated): the concentration at half-maximal activity (AC50) was 3.16 µM (inconclusive) at Cytochrome P450 3A4 and 6.31 µM (inconclusive) at Cytochrome P450 2C9.
Regarding `FC(F)(F)c1nc2ccc(SSc3ccc4nc(C(F)(F)F)[nH]c4c3)cc2[nH]1`, the AC50 on Cytochrome P450 1A2 was 0.501 µM (inconclusive); at Cytochrome P450 2C9, 7.94 µM (inconclusive).
Turning to `Cc1ccc(C)c(N2CCN(C(=O)c3ccc(Cn4c(=S)[nH]c5ccc(N6CCOCC6)cc5c4=O)cc3)CC2)c1`, the EC50 in test [1] is 0.458 µM (active); in test [2], > 60 µM (not active).
As to `CN1CCCC2(CCN(S(=O)(=O)c3ccccc3)CC2)C1`, the AC50 at Cytochrome P450 1A2 was 20 µM (inconclusive).
As for `CCCCCCc1cc2cc(C(=O)NCc3ccccc3)c(=N)oc2cc1O`, in test [4], the EC50 is 4.2 µM (active).
In the case of `CC(=O)c1cccc(NC(=O)CSCc2ccccc2)c1`, the results for the AC50 on Cytochrome P450 3A4 and at Cytochrome P450 2C9 were 28.2 µM (inconclusive) and 7.94 µM (inconclusive), respectively.
Regarding `C=CCNc1cnn(-c2ccc(C)cc2)c(=O)c1Cl`, the AC50 on Cytochrome P450 1A2 is 28.2 µM (inconclusive).
Turning to `CCCNC(=O)OC[C@@H]1O[C@H](CCO/N=C2\c3cc(OC)ccc3O[C@H](c3cccc(OC)c3)[C@H]2O)C=C[C@@H]1Oc1ccc(OC)cc1`, the AC50 on Cytochrome P450 2C9 is 6.31 µM (inconclusive).
With `N#C/C(=C\c1cc([N+](=O)[O-])c(N2CCCCC2)cc1N1CCCCC1)c1nn(-c2ccccc2)c(N)c1C#N`, on Cytochrome P450 3A4, the AC50 was 2.24 µM (inconclusive).
For the compound `CC(=O)Nc1cccc(NC(=O)C2CCCN2C(=O)Nc2ccccc2C)c1` (configuration not stated), the results for the AC50 at Cytochrome P450 1A2 and on Cytochrome P450 2C9 were 25.1 µM (inconclusive) and 20 µM (inconclusive), respectively.
As for `Cc1nnc(C)n1/N=C/c1ccc(-c2ccccc2)cc1`, the AC50 at Cytochrome P450 1A2 was 10 µM (inconclusive); at Cytochrome P450 3A4 it was 22.4 µM (inconclusive); on Cytochrome P450 2C9 it was 12.6 µM (inconclusive).
As to `COc1ccc(OC)c(NC(=O)c2cc3n(n2)C(C(F)(F)F)CC(c2ccc4c(c2)OCO4)N3)c1` (configuration not stated), the AC50 at Cytochrome P450 2C9 is 0.794 µM (inconclusive).
Turning to `CC(C)(CO)N1CCN(C(S)=Nc2ccccc2)CC1`, the half-maximal activity concentration (AC50) on Cytochrome P450 1A2 is 6.31 µM (inconclusive).
Consider `COc1cccc(Nc2ncc3nc(-c4cccs4)c(=O)n(Cc4cccs4)c3n2)c1`, for which the concentration at half-maximal activity (AC50) on Cytochrome P450 1A2 was 2 µM (inconclusive).
As to `N[C@H](C(=O)O)[C@H](O)C(=O)O`, the figures for the concentration at half-maximal activity (AC50) at Cytochrome P450 1A2 and on Cytochrome P450 3A4 were 39.8 µM (inconclusive) and 0.0316 µM (inconclusive), respectively.
In the case of `Cc1cccc(Nc2nc(-c3ccncc3)cs2)c1`, the results for the EC50 in test [1] and in test [2] were 0.154 µM (active) and 6.1 µM (active), respectively.
Turning to `O=C(CSCc1ccccc1Cl)NNC(=O)c1ccccc1`, the AC50 was 15.8 µM (inconclusive) at Cytochrome P450 1A2 and 11.2 µM (inconclusive) at Cytochrome P450 3A4.
For `Clc1ccc(OCCCCCN2CCCC2)c(Br)c1`, the EC50 in test [1] was 0.231 µM (active); in test [2], 10.9 µM (active).
As to `OCCNCCCOc1cccc(Cl)c1Cl`, on Cytochrome P450 3A4, the AC50 is 31.6 µM (inconclusive).
For `CN(C)c1ncc2nc(-c3ccc(F)cc3)c(=O)n(C3CC3)c2n1`, on Cytochrome P450 2C9, the AC50 was 0.251 µM (inconclusive).
Regarding `O=C(OCC(=O)N1N=C(c2ccc(Cl)cc2)CC1c1ccco1)c1ccco1` (configuration not stated), the EC50 in test [4] was > 53 µM (inactive).
Consider `Cc1ccc(C(=O)N/N=C/c2cn(Cc3ccccc3)c3ccccc23)cn1`, for which the EC50 in test [5] is 7.88 µM (active).
